Assay results: patent US11344510B2, “Arylcyclohexylamine derivatives and their use in the treatment of psychiatric disorders” (Gilgamesh Pharmaceuticals, Inc., priority 2019, dated 2022)

Legend:
[1] = HLM stability (Low Activity, Alternative Method); assay type: in vitro ADME; settings: both sexes, human, liver microsomes, pH 7.4, Condition 1 column, values marked *: Low Activity, 0.50 mg protein/mL
In short: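 Pooled male and female human liver microsomes (0.50 mg/mL) in 100 mM PBS pH 7.4 with 1 mM MgCl2 and 1 mM NADPH, compound 1 μM (1.0% solvent), 37° C with shaking, six time points over 60 min. Parent remaining measured by LC-MS/MS; kel, t1/2 and Clint from linear regression of ln(AUC) versus time.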

[2] = MLM stability (Low Activity); assay type: in vitro ADME, CD-1 mice; settings: male, CD-1, mouse, liver microsomes, pH 7.4, Condition 1 (Low Activity), 0.50 mg protein/mL
In short: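 Pooled male CD-1 mouse liver microsomes (0.50 mg/mL) with 1 μM compound and 1 mM NADPH in 100 mM PBS pH 7.4 with 1 mM MgCl2, 37 °C, six time points over 60 min. Parent remaining by LC-MS/MS; kel, t1/2 and Clint from linear regression of ln(AUC) versus time.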

[3] = RLM stability (Low Activity); assay type: in vitro ADME, Sprague Dawley rats; settings: male, Sprague Dawley, rat, liver microsomes, pH 7.4, Condition 1 (Low Activity), 0.50 mg protein/mL
In short: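 Pooled male Sprague Dawley rat liver microsomes (0.50 mg/mL) in PBS pH 7.4 with 1 mM MgCl2 and 1 mM NADPH; compound 1 μM, 1.0% solvent, 37° C. Six time points over 60 min, parent remaining by LC-MS/MS; kel, t1/2 and Clint from linear regression of ln(AUC) versus time.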

[4] = molecular target: MK-801 binding site of the N-methyl-D-aspartate receptor (NMDAR); assay: NMDAR radioligand binding with [3H]MK-801, Method B; design: species or system Sprague Dawley rat; settings: MK-801 site, Method B, male Sprague Dawley rat cortex, 5.0 nM [3H]MK-801; read-out: NMDAR Ki ± SEM
Experimental: Radioligand Binding—Method B. Affinity of the test compounds for NMDAR was determined in radioligand binding experiments with [^3H]MK-801 by WuXi AppTec (Hong Kong) Limited, under the conditions described in Table 13.

[5] = molecular target: T1, serotonin transporter (SERT) (Homo sapiens, UniProt P31645); assay: Fluorescent substrate uptake inhibition, SERT; assay type: cell-based; settings: for inhibition at 10 µM: HEK293 cells expressing SERT
T1 construct: expressed in transfected cells; host or cells: HEK293
T1 sequence (P31645 whole entry, species assumed): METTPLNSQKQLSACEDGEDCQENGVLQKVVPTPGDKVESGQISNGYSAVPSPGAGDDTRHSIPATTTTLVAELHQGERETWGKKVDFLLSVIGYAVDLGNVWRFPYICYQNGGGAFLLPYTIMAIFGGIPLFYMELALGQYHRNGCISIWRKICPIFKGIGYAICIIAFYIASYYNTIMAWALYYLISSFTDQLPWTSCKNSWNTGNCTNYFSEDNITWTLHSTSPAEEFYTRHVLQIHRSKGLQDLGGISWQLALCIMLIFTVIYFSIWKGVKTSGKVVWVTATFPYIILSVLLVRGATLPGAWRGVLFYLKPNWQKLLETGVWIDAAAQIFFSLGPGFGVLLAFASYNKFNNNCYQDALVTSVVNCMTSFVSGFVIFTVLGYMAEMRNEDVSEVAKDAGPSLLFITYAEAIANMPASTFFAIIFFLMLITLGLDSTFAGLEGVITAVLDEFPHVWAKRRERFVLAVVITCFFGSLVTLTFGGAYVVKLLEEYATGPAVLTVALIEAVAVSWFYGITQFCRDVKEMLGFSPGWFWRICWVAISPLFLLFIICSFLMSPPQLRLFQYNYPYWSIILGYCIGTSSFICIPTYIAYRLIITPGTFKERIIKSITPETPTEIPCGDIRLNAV

[6] = molecular target: T2, norepinephrine transporter (NET) (Homo sapiens, UniProt P23975); assay: Fluorescent substrate uptake inhibition, NET; assay type: cell-based; settings: for inhibition at 10 µM: HEK293 cells expressing NET
T2 construct: expressed in transfected cells; host or cells: HEK293
T2 sequence (P23975 whole entry, species assumed): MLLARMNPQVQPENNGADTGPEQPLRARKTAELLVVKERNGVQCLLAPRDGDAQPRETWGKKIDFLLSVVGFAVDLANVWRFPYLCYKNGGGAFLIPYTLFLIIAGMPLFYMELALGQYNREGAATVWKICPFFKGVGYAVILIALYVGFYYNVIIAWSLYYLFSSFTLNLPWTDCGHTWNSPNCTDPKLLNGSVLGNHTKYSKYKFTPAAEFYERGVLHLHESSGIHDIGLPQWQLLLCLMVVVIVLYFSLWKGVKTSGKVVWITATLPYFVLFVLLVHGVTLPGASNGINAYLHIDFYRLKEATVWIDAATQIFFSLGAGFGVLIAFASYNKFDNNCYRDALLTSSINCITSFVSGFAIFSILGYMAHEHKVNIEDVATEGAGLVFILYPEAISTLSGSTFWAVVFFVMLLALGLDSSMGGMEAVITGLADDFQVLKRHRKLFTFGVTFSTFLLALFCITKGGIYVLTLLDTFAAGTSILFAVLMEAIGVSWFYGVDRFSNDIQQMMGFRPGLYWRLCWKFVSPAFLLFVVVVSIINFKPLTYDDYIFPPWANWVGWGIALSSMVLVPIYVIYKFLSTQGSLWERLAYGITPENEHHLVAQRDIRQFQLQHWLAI

[7] = molecular target: T3, dopamine transporter (DAT) (Homo sapiens, UniProt Q01959); assay: Fluorescent substrate uptake inhibition, DAT; assay type: cell-based; settings: for inhibition at 10 µM: CHO cells expressing DAT; for inhibitory activity at DAT: in words
T3 construct: expressed in transfected cells; host or cells: CHO (uptake)
T3 sequence (Q01959 whole entry, species assumed): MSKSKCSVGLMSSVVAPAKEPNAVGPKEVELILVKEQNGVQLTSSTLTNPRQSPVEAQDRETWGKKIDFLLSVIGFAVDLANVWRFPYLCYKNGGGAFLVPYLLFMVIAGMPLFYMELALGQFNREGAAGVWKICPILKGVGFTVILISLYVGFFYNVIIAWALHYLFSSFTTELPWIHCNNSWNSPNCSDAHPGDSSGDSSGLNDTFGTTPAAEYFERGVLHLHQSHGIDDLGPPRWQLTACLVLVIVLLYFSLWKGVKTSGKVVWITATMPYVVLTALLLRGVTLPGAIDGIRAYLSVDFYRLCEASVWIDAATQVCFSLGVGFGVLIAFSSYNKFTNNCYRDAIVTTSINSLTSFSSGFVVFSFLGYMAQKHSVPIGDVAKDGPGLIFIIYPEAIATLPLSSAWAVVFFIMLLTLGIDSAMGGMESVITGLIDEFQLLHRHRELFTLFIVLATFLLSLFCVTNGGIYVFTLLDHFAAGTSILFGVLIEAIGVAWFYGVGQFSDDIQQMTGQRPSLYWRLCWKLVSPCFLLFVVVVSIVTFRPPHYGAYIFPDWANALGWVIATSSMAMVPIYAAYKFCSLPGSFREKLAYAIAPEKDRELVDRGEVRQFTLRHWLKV

[8] = molecular target: T4, vesicular monoamine transporter 2 (VMAT2) (Homo sapiens, UniProt Q05940); assay: Fluorescent substrate uptake inhibition, VMAT2; assay type: cell-based; settings: 10 μM, transfected cells
T4 construct: expressed in transfected cells
T4 sequence (Q05940 whole entry, species assumed): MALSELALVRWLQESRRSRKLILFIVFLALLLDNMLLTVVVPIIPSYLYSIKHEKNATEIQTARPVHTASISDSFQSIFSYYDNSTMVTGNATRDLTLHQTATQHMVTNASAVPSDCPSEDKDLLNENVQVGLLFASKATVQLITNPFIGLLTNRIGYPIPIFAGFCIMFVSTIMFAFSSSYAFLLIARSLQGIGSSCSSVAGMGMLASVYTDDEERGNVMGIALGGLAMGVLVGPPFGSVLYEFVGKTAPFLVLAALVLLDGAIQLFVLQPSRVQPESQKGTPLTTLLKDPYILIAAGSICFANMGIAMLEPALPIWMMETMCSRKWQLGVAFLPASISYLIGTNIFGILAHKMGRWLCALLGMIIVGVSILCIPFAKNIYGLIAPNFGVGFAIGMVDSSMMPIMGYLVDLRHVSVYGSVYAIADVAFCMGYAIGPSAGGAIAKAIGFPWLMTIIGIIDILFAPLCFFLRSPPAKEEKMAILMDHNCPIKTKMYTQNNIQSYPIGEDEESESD

[9] = molecular target: T5, SERT (Homo sapiens, UniProt P31645); assay: SERT radioligand binding with [3H]imipramine
T5 construct: expressed in transfected cells; host or cells: HEK293
T5 sequence (P31645 whole entry, species assumed): as the sequence (P31645 whole entry, species assumed) above
Experimental: (§1) Radioligand Binding. Affinity of the test compounds for SERT, NET, and DAT was determined in radioligand binding experiments with [^3H]imipramine, [^3]nisoxetine, and [^3H]WIN35,428, respectively, by WuXi AppTec (Hong Kong) Limited, under the conditions described in Table 15.

[10] = molecular target: T6, NET (Homo sapiens, UniProt P23975); assay: NET radioligand binding with [3H]nisoxetine
T6 construct: expressed in transfected cells; host or cells: HEK293
T6 sequence (P23975 whole entry, species assumed): as the sequence (P23975 whole entry, species assumed) above
Experimental: as §1

[11] = molecular target: T7, DAT (Homo sapiens, UniProt Q01959); assay: DAT radioligand binding with [3H]WIN35,428
T7 construct: expressed in transfected cells; host or cells: CHO (uptake)
T7 sequence (Q01959 whole entry, species assumed): as the sequence (Q01959 whole entry, species assumed) above
Experimental: as §1

[12] = HLM stability (High Activity); assay type: in vitro ADME; settings: both sexes, human, liver microsomes, pH 7.4, Condition 2 (High Activity), 1.0 mg protein/mL
Experimental: (§2) HLM Stability (High Activity). Pooled HLM from adult male and female donors (XenoTech H0630) were used. Microsomal incubations were carried out in 96-well plates in 5 aliquots of 40 μL, each (one for each time point). Liver microsomal incubation medium consisted of PBS (100 mM, pH 7.4), MgCl2 (3.3 mM), NADPH (3 mM), glucose-6-phosphate (5.3 mM), and glucose-6-phosphate dehydrogenase (0.67 units/mL), with 1.0 mg of liver microsomal protein per mL. Control incubations were performed by replacing the NADPH-cofactor system with PBS. Test compounds (1 μM, final solvent concentration 1.6%) were incubated with microsomes at 37° C., shaking at 100 rpm. Incubations were performed in duplicate. Five time points over 60 minutes were analyzed. The reactions were stopped by adding 12 volumes of 90% acetonitrile-water to incubation aliquots, followed by protein sedimentation by centrifugation at 5500 rpm for 3 minutes. Supernatants were analyzed for parent compound remaining using a fit-for-purpose liquid chromatography-tandem mass spectrometry (LC-MS/MS) method, with authentic samples of each analyte used for identity confirmation.
(§3) Data Analysis. The elimination constant (kel), half-life (t1/2) and intrinsic clearance (Clint) were determined in a plot of […] versus time, using linear regression analysis.

[13] = MLM stability (High Activity); assay type: in vitro ADME, BALB/c mice; settings: male, BALB/c, mouse, liver microsomes, pH 7.4, Condition 2 (High Activity), 1.0 mg protein/mL
Experimental: as §2, with “MLM” for “HLM”, “from” for “from adult”, “BALB/c mice” for “and female donors”, “M3000)” for “H0630)”, “μL” for “μL,”, “9” for “12”
as §3

Compound	Ki [4] [µM]	IC50 [5] [µM]	inhibition at 10 µM [5] [%]	IC50 [6] [µM]	inhibition at 10 µM [6] [%]	IC50 [7] [µM]	inhibition at 10 µM [7] [%]	inhibitory activity at DAT [7]	inhibition at 10 µM [8] [%]	Ki [9] [µM]	Ki [10] [µM]	Ki [11] [µM]	half-life at 1 μM [12] [min]	microsomal CLint at 1 μM [12] [µL/min/mg]	half-life at 1 μM [13] [min]	microsomal CLint at 1 μM [13] [µL/min/mg]	further results
CC(C)N[C@]1(c2ccccc2)CCCCC1=O [Compound 28S, (S)-2-(isopropylamino)-2-phenylcyclohexan-1-one]	3	8.5	22	4.7	48.7	1.3	58	significant inhibitory activity at DAT	-32.7	12.3	13.5	6	–	–	–	–	half-life at 1 μM [1]: 76.6 min; microsomal CLint at 1 μM [1]: 18.1 µL/min/mg; half-life at 1 μM [2]: 14.8 min; microsomal CLint at 1 μM [2]: 94 µL/min/mg; half-life at 1 μM [3]: 18.9 min; microsomal CLint at 1 μM [3]: 73.4 µL/min/mg
O=C1CCCC[C@@]1(c1ccccc1)N1CCCCC1 [Compound 26S, (S)-2-phenyl-2-(piperidin-1-yl)cyclohexan-1-one]	0.52	44	43	8.9	16.1	16.4	33.7	–	22.9	8.2	> 87.4	79.5	101	7	12.3	56	–
O=C1CCCC[C@]1(c1ccccc1)N1CCCCC1 [Compound 26R, (R)-2-phenyl-2-(piperidin-1-yl)cyclohexan-1-one]	3.7	> 100	30.4	23.7	19.5	5	58	significant inhibitory activity at DAT	-12.3	22.5	> 87.4	70.4	63.2	11	10.6	65	–
